Laboratory results published in article PMC11481179, “Development and Application of Reversible and Irreversible Covalent Probes for Human and Mouse Cathepsin‐K Activity Detection, Revealing Nuclear Activity” (Advanced Science, 2024).

Assays:
Assay in all cases: Recombinant cathepsin inhibition, residual activity labeled by pan cathepsin probe GB123, in-gel fluorescence
Assay type in all cases: biochemical
[1] = target: CTSB (Homo sapiens, UniProt P07858); details: even at 10 µM
Procedure: (§1) Figure 1 In vitro evaluation of CTSK targeted compounds. a) Labeling of recombinant cathepsins by ABPs. Recombinant cathepsins were treated with increasing concentrations of ABPs for 1 h. Samples were separated by SDS‐PAGE and scanned for fluorescence by a Typhoon scanner at 635/670 nm. All probes show dose‐dependent binding to the CTSK, and have lower affinity to CTSS except GD36, b) CTSK [0.5–280 ng] was labeled with the indicated ABPs [5 µM]. Incubations were performed for 1 h at 37 °C, at pH 5.5. Samples were analyzed as described in (a). c) Recombinant cathepsins B, K, L, and S [0.5 µM] were first treated with the indicated concentrations of the inhibitor GD30 or vehicle for 1 h followed by incubation with a pan cathepsin probe GB123 [1 µM] for 1 h. Samples were analyzed as described in (a). d) Quantitative analysis of CTSK inhibition by GD30 presented in (d), data represent mean values ± standard error, n = 3. e) IC50 plot of GD30 inhibition of CTSK activity.
(§2) To further evaluate the probes for their selectivity, we applied a potent and selective covalent inhibitor, Compound 6 (GD30); the inhibitor was generated as a precursor of GD32 and GD36. GD30 was evaluated for its ability to block cathepsin activities by preincubating it with each recombinant enzyme before labeling it by a pan cathepsin ABP, GB123. […]
(§3) Recombinant cathepsin inhibition: Recombinant human CTSL, CTSB, CTSK, and CTSS (0.5 µM) were pretreated with different concentrations of inhibitors (GD30, ODN) for 1 h in reaction buffer (50 mM acetate, 4 mM DTT and 5 mM MgCl2, pH 5.5) at 37 °C. GB123, 1 µM, was added, and incubated with samples for 1 h at 37 °C. The reaction was stopped by the addition of sample buffer 4x (40% glycerol, 0.2 M Tris/HCl pH 6.8, 20% beta-mercaptoethanol, 12% SDS, and 0.4 mg/ml bromophenol blue). Samples were then boiled at 95 °C for 2 mins, separated on a 12.5% SDS gel, and scanned for fluorescence by a Typhoon scanner FLA 9500 at excitation/emission wavelengths of 635/670 nm.
(§4) Recombinant cathepsin labeling: Recombinant human CTSL, CTSB, CTSK, and CTSS (0.5 µM) were pretreated with different concentrations of probes (GD32, GD36, GD37, or GD42)

[2] = target: T1, CTSK (Homo sapiens, UniProt P43235); details: CTSK 0.5 µM, 1 h preincubation, then GB123 1 µM 1 h, pH 5.5
T1 sequence (P43235 115-329): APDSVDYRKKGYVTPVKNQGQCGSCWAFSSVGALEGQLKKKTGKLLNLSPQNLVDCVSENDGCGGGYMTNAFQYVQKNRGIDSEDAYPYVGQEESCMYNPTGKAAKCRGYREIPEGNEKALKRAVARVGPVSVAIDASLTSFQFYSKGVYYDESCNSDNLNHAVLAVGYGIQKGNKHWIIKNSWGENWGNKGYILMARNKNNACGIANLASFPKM
Procedure: as §1, §2, §3, §4

[3] = target: CTSL (Homo sapiens, UniProt P07711); details: even at 10 µM
Procedure: as §1, §2, §3, §4

CTSL, sequence (P07711 114-333): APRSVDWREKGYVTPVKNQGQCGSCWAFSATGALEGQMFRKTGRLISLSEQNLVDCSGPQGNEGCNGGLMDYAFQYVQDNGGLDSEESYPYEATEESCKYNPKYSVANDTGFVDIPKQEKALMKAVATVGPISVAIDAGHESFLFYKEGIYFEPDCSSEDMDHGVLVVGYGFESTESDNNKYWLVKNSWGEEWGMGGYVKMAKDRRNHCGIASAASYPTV

C#CCNC(=O)[C@H](CC(C)C)N[C@@H](c1ccc(-c2ccc(S(=O)(=O)CCNC(=O)OC(C)(C)C)cc2)cc1)C(F)(F)F [GD30]
inhibition of recombinant cathepsin [1]: not inhibiting
IC50 [2]: 561 nM
inhibition of recombinant cathepsin [3]: not inhibiting
